Results on four compounds are retold here after patent US4845079A, “Peptidylaminodiols” (priority 1988, dated 1989).

A word on the IC50: it is the concentration at which inhibition is half-maximal. Low readings indicate greater potency, high ones weaker potency.

SMILES strings stand for the structures. Structures can show the parent of a compound that is named as a salt.

The target in the assay is T1, human renal renin (Homo sapiens, UniProt P00797).
T1 construct: with human renal renin, free from acid proteolytic activity; from tissue; host or cells: human kidney (concluded from the word 'renal')
T1 sequence (P00797 67-406): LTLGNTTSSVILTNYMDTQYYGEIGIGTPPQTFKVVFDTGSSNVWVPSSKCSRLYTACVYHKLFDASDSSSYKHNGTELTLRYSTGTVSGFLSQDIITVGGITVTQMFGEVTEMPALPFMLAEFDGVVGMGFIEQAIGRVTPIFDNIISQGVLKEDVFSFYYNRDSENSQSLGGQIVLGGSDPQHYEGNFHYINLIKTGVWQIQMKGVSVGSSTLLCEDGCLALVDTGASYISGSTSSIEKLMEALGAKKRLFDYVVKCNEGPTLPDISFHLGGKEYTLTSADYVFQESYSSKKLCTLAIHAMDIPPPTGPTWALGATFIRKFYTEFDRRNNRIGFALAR
The assay can be described thus: in vitro inhibition of human renal renin (angiotensin I formed measured by radioimmunoassay). In kind it is biochemical. As to conditions: human renal renin with renin substrate (human angiotensinogen), 37° C., pH 6.0.
In the case of `CC(C)C[C@H](O)[C@H](O)[C@H](CC1CCCCC1)NC(=O)[C@H](Cc1c[nH]cn1)NC(=O)[C@H](Cc1ccccc1)NC(=O)C(C)(C)CN` [Example 82, [(α, α-Di-Me)-β-Ala]-Phe-His Amide of 2(S)-Amino-1-cyclohexyl-3(R),4(S)-dihydroxy-6-methylheptane Bis acetic acid salt], the midpoint of inhibition, the IC50, lay at 0.6 nM.

`CC(C)C[C@H](O)[C@H](O)[C@H](CC1CCCCC1)NC(=O)[C@H](Cc1cnc[nH]1)NC(=O)[C@H](Cc1ccccc1)NC(=O)C(C)(C)CNC(=O)OCc1ccccc1` [Example 81] returned an IC50 of 0.6 nM.

Take `C[C@H](NC(=O)[C@H](Cc1ccccc1)NC(=O)OC(C)(C)C)C(=O)N[C@@H](CC1CCCCC1)C(O)CO` (stereo partly drawn) [Example 3, Boc-Phe-Ala Amide of 3(S)-Amino-4-cyclohexyl-1,2(R,S)-dihydroxybutane]: inhibition was half-maximal at 4000 nM (IC50).

`CCOC(=O)N[C@@H](Cc1ccccc1)C(=O)N(C)[C@@H](Cc1c[nH]cn1)C(=O)N[C@@H](CC1CCCCC1)[C@@H](O)[C@@H](O)CC(C)C` [Example 39, Ethoxycarbonyl-Phe-MeHis Amide of 2(S)-Amino-1-cyclohexyl-3(R),4(S)-dihydroxy-6-methylheptane] came in with an IC50 of 2 nM.
